Laboratory results: paper PMC13091788 (NPJ Aging, 2026)

Tests used:
[1] = system: MITOL and Tom20 mRNA in C2C12 cells; experiment: qRT-PCR analysis of C2C12 cells; assay type: cell-based, mouse; conditions: C2C12, 5 μM or 10 μM
Experimental: Murine myoblast C2C12 cells were used for various cellular experiments in this study. Two different sources of C2C12 cells were used depending on the experiment: C2C12 cells obtained from RIKEN BRC (RCB0987) were used for gene expression, mtDNA quantification, and mitochondrial morphology analysis; C2C12 cells from ATCC (CRL-1772) were used for OCR analysis. Cells were cultured in Dulbecco’s Modified Eagle Medium (DMEM; Sigma-Aldrich or Nacalai Tesque), supplemented with 10% FBS and 1% penicillin–streptomycin. Cells were maintained in a humidified incubator at 37°C with 5% CO2.
For cellular experiments, berberine or quinoid-type berberrubine (Q-BRB) was dissolved in DMSO, and berberrubine acetic acid adduct (AcA-BRB) was dissolved in distilled H2O. Each compound was diluted in culture medium to the indicated final concentrations.
Total RNA was extracted from C2C12 cells using an RNA extraction kit (RNeasy Mini Kit, Qiagen). After washing with PBS, cells were collected by trypsinization and centrifugation at 500 × g for 5 min, and the pellet was lysed according to the manufacturer’s instructions. The extracted RNA was reverse-transcribed into cDNA using a reverse transcription kit (ReverTra Ace, TOYOBO). Quantitative real-time PCR was performed using a qPCR master mix (KAPA SYBR FAST qPCR Master Mix (2X) Kit, KAPABIOSYSTEMS) and a thermal cycler (StepOnePlus, Applied Biosystems). Gene expression levels were normalized to GAPDH. Primer sets used for qRT-PCR are listed in Supplementary Table 1.

[2] = design: method as in PMID 24593257; conditions: cited from earlier work
C2C12 cells [3] = experiment: Mitochondrial morphology analysis (anti-Tom20, MiNA); assay type: cell-based, mouse; conditions: C2C12, Q-BRB or AcA-BRB 10 μM, 48 h
Experimental: Cells were fixed with 4% paraformaldehyde in PBS for 15 min at 37 °C, washed three times with PBS, and permeabilized with 0.1% Triton X-100 in PBS for 10 min at room temperature (RT). After three additional washes with PBS, cells were blocked with 10% bovine serum albumin (BSA) in PBS for 10 min at RT. Cells were incubated with anti-Tom20 primary antibody (1:750 dilution, 11802-1-AP, Proteintech) in PBS containing 5% BSA for 1 h at RT, followed by three PBS washes. Hoechst 33342 (1:2000 dilution) and Alexa Fluor-conjugated secondary antibody (1:500 dilution, A11029, Invitrogen) in PBS containing 5% BSA were applied for 30 min at RT.
After three final PBS washes, cells were mounted with Fluorescent Mounting Medium (S3023, Dako), and imaged using an FV3000 confocal laser scanning microscope (Olympus). Images were acquired as Z-stacks with 0.2 μm intervals and reconstructed into maximum intensity projections using Fiji/ImageJ software.
Mitochondrial morphology was quantified using the MiNA plugin for Fiji (https://imagej.net/plugins/mina). Thirty cells per group were randomly selected for analysis. Average mitochondrial length and other morphological parameters were calculated according to the plugin’s standard analysis pipeline.

C2C12 cells [4] = experiment: Mitochondrial membrane potential (JC-1); assay type: cell-based, mouse; conditions: C2C12, Q-BRB or AcA-BRB 5 or 10 μM, 48 h
Experimental: Mitochondrial membrane potential was assessed using the JC-1 dye (JC-1, T3168, Thermo Fisher Scientific). Cells cultured in 96-well plates were washed twice with PBS and incubated with 1 μM JC-1 for 30 min at 37 °C in the dark. After incubation, cells were washed with PBS, and fluorescence intensities at 590 nm (red) and 530 nm (green) were measured using a microplate reader. The 590/530 nm fluorescence ratio was calculated and used as an index of mitochondrial membrane potential.

[5] = system: high-fat diet (HFD32)-fed mice; experiment: Survival analysis in high-fat diet-fed mice; assay type: in vivo, mouse; conditions: 0.5 mg/mL in drinking water from 60 weeks old, HFD32 from 8 weeks of age
Experimental: For survival analysis under metabolic stress conditions, two-month-old C57BL/6NJcl male mice fed a high-fat diet (HFD 32: water 6.2%, protein 25.5%, fat 32.0%, ash 4.0%, carbohydrate 29.4%, fiber 2.9%, providing 507.6 kcal/100 g; CLEA) were randomly assigned to two groups: tap water only and tap water supplemented with AcA-BRB (0.5 mg/mL).

C2C12 cells [6] = experiment: Mitochondrial ROS (4-HNE in isolated mitochondrial fractions); assay type: cell-based, mouse; conditions: C2C12, Q-BRB or AcA-BRB 5 or 10 μM, 24 h
Source text: Proteins in sample buffer were separated by SDS-PAGE and transferred to Immobilon-P PVDF membranes (IPVH00010, Millipore). Blots were probed with the indicated antibodies, and protein bands on the blot were visualized using Chemi-Lumi One L (07880-70, Nacalai Tesque) or Immobilon Western Chemiluminescent HRP Substrate (WBKLS0500, Millipore). Band images were captured using a LuminoGraph I imager (WSE-6100, ATTO). Relative band intensities were quantified using Fiji/ImageJ software. Unprocessed western blot images corresponding to the data presented in the main and supplementary figures are provided in Supplementary Figures 11–16. Mitochondria were isolated using differential centrifugation. Cells were washed twice with ice-cold PBS, harvested by scraping, and collected by centrifugation at 500 × g for 5 min at 4 °C. The resulting cell pellets were resuspended in ice-cold mitochondrial isolation buffer (250 mM sucrose, 10 mM HEPES-KOH pH 7.4, 1 mM EDTA, and protease inhibitor cocktail) and incubated on ice for 10 min. Cells were mechanically disrupted on ice using a 27 G needle. The homogenates were centrifuged at 800 × g for 10 min at 4 °C to remove nuclei and cellular debris. The supernatants were transferred to new tubes and centrifuged at 8000 × g for 10 min at 4 °C to obtain the mitochondrial fraction. […] Protein concentration was measured using the BCA Protein Assay Kit (Takara Bio).

SMILES | mRNA levels of MITOL and Tom20 [1] | lipophilicity [2] | mitochondrial elongation (C2C12 cells [3]) | mitochondrial membrane potential (JC-1 590/530 nm) (C2C12 cells [4]) | lifespan compared with control mice [5] | mitochondrial ROS (4-HNE levels in isolated mitochondrial fractions) (C2C12 cells [6])
COc1ccc2cc3[n+](cc2c1O)CCc1cc2c(cc1-3)OCO2 [AcA-BRB, berberrubine acetic acid adduct] | increased | – | – | – | – | –
COc1ccc2cc3n(cc-2c1=O)CCc1cc2c(cc1-3)OCO2 [Q-BRB, quinoid-type berberrubine] | increased | very high | – | – | – | –
COc1ccc2cc3[n+](cc2c1O)CCc1cc2c(cc1-3)OCO2 [berberrubine] | – | – | significantly enhanced | remained unchanged | significantly prolonged | modest increase
